Measured values: patent US9586928B2 (The Scripps Research Institute, priority 2011, dated 2017)

Assays:
Type in all cases: cell-based
Conditions in all cases: 10 μM
RORα = target: T1, RORα (Homo sapiens, UniProt P35398); assay: Gal4-RORα LBD / UAS luciferase cotransfection assay
T1 construct: expressed in transfected cells; host or cells: HEK293T
T1 sequence (P35398 272-510 limits assumed): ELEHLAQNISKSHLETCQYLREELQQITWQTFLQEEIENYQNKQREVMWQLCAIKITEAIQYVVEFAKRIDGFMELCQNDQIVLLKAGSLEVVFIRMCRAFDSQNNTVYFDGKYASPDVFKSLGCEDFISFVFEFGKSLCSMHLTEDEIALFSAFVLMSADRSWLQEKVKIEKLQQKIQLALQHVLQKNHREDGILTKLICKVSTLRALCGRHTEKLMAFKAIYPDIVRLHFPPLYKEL

RORγ = target: T2, RORγ (Homo sapiens, UniProt P51449); assay: Gal4-RORγ LBD / UAS luciferase cotransfection assay
T2 construct: expressed in transfected cells; host or cells: HEK293T
T2 sequence (P51449 269-508 limits assumed): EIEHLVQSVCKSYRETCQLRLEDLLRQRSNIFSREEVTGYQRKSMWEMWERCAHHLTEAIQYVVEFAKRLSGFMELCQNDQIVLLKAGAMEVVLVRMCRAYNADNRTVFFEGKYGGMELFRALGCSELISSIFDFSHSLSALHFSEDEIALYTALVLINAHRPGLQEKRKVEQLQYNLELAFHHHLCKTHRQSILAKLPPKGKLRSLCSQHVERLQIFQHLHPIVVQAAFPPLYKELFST
Experimental: (§1) The cells were treated with either DMSO or various compounds as indicated four hours after replating. Following additional 20 hour incubation, luciferase levels were assayed by one-step addition of 20 μL BriteLite (Perkin Elmer) and read using an Envision multilabel plate reader (Perkin Elmer).
(§2) Cotransfection assays were performed as previously described in HEK293 cells (Gal4 cotransfection assay or IL-17 luciferase reporter)[8]. HEK293 and the mouse lymphoma EL4 (ATCC) cells were maintained in DMEM supplemented with 10% FBS plus antibiotics (penicillin and streptomycin; Invitrogen).

VP16 = assay: Gal4 DBD-VP16 / UAS luciferase control assay
Experimental: as §1

LXR = target: T3, LXR (Homo sapiens, UniProt Q13133); assay: Gal4-LXRα / UAS luciferase cotransfection assay
T3 sequence (Q13133 209-447 limits assumed): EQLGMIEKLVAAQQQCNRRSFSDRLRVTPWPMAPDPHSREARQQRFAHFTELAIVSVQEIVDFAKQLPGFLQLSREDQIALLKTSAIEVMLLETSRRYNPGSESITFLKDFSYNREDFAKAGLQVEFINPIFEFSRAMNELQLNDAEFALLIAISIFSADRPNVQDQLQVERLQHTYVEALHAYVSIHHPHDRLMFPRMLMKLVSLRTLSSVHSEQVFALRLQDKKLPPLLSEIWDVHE
Experimental: as §1, §2

Row | Compound | RORα repression, fold change over DMSO (RORα) | RORγ repression, fold change over DMSO (RORγ) | VP16 repression, fold change over DMSO (VP16) | LXR activation, fold change over DMSO (LXR)
1 | OC(c1ccc(-c2ccc(CN3CCN(CC4COc5ccccc5O4)CC3)cc2)cc1)(C(F)(F)F)C(F)(F)F (stereo not drawn) [Compound 21, 2-(4′-((4-((2,3-Dihydrobenzo[b][1,4]dioxin-2-yl)methyl)piperazin-1-yl)methyl)-[1,1′-biphenyl]-4-yl)-1,1,1,3,3,3-hexafluoropropan-2-ol] | 0.45 fold change over DMSO | 0.35 fold change over DMSO | 0.35 fold change over DMSO | 0.7 fold change over DMSO
2 | CCCNC(=O)N1CCN(Cc2ccc(-c3ccc(C(O)(C(F)(F)F)C(F)(F)F)cc3)cc2)CC1 [Compound 22, 4-((4′-(1,1,1,3,3,3-Hexafluoro-2-hydroxypropan-2-yl)-[1,1′-biphenyl]-4-yl)methyl)-N-propylpiperazine-1-carboxamide] | 0.5 fold change over DMSO | 0.4 fold change over DMSO | 0.4 fold change over DMSO | 1.8 fold change over DMSO
3 | O=C(Nc1ccccc1)N1CCN(Cc2ccc(-c3ccc(C(O)(C(F)(F)F)C(F)(F)F)cc3)cc2)CC1 [Compound 23, 4-((4′-(1,1,1,3,3,3-Hexafluoro-2-hydroxypropan-2-yl)-[1,1′-biphenyl]-4-yl)methyl)-N-phenylpiperazine-1-carboxamide] | 0.9 fold change over DMSO | 0.5 fold change over DMSO | 0.55 fold change over DMSO | 2 fold change over DMSO
4 | O=C(NCc1ccccc1)N1CCN(Cc2ccc(-c3ccc(C(O)(C(F)(F)F)C(F)(F)F)cc3)cc2)CC1 [Compound 24, N-Benzyl-4-((4′-(1,1,1,3,3,3-hexafluoro-2-hydroxypropan-2-yl)-[1,1′-biphenyl]-4-yl)methyl)piperazine-1-carboxamide] | 0.5 fold change over DMSO | 0.25 fold change over DMSO | 0.25 fold change over DMSO | 1.3 fold change over DMSO
5 | CCC(=O)N1CCN(Cc2ccc(-c3ccc(C(O)(C(F)(F)F)C(F)(F)F)cc3)cc2)CC1 [Compound 25, 1-(4-((4′-(1,1,1,3,3,3-Hexafluoro-2-hydroxypropan-2-yl)-[1,1′-biphenyl]-4-yl)methyl)piperazin-1-yl)propan-1-one] | 0.7 fold change over DMSO | 0.45 fold change over DMSO | 0.5 fold change over DMSO | 1 fold change over DMSO
6 | O=C(c1ccccc1)N1CCN(Cc2ccc(-c3ccc(C(O)(C(F)(F)F)C(F)(F)F)cc3)cc2)CC1 [Compound 26, (4-((4′-(1,1,1,3,3,3-Hexafluoro-2-hydroxypropan-2-yl)-[1,1′-biphenyl]-4-yl)methyl)piperazin-1-yl)(phenyl)methanone] | 0.9 fold change over DMSO | 0.8 fold change over DMSO | 0.7 fold change over DMSO | 2 fold change over DMSO
7 | O=C(Cc1ccccc1)N1CCN(Cc2ccc(-c3ccc(C(O)(C(F)(F)F)C(F)(F)F)cc3)cc2)CC1 [Compound 27, 1-(4-((4′-(1,1,1,3,3,3-Hexafluoro-2-hydroxypropan-2-yl)-[1,1′-biphenyl]-4-yl)methyl)piperazin-1-yl)-2-phenylethanone] | 0.5 fold change over DMSO | 0.25 fold change over DMSO | 0.3 fold change over DMSO | 0.8 fold change over DMSO
8 | CS(=O)(=O)N1CCN(Cc2ccc(-c3ccc(C(O)(C(F)(F)F)C(F)(F)F)cc3)cc2)CC1 [Compound 28, 1,1,1,3,3,3-Hexafluoro-2-(4′-((4-(methylsulfonyl)piperazin-1-yl)methyl)-[1,1′-biphenyl]-4-yl)propan-2-ol] | 1.1 fold change over DMSO | 0.5 fold change over DMSO | 0.75 fold change over DMSO | 1.5 fold change over DMSO
9 | O=S(=O)(c1ccccc1)N1CCN(Cc2ccc(-c3ccc(C(O)(C(F)(F)F)C(F)(F)F)cc3)cc2)CC1 [Compound 29, 1,1,1,3,3,3-Hexafluoro-2-(4′-((4-(phenylsulfonyl)piperazin-1-yl)methyl)-[1,1′-biphenyl]-4-yl)propan-2-ol] | 1 fold change over DMSO | 0.8 fold change over DMSO | 0.8 fold change over DMSO | 1.8 fold change over DMSO
10 | O=S(=O)(Cc1ccccc1)N1CCN(Cc2ccc(-c3ccc(C(O)(C(F)(F)F)C(F)(F)F)cc3)cc2)CC1 [Compound 30, 2-(4′-((4-(Benzylsulfonyl)piperazin-1-yl)methyl)-[1,1′-biphenyl]-4-yl)-1,1,1,3,3,3-hexafluoropropan-2-ol] | 1 fold change over DMSO | 0.75 fold change over DMSO | 0.75 fold change over DMSO | 2 fold change over DMSO
11 | OC(c1ccc(-c2ccc(CN3CCN(Cc4ccnc(Br)c4)CC3)cc2)cc1)(C(F)(F)F)C(F)(F)F [Compound 40, 2-(4′-((4-((2-Bromopyridin-4-yl)methyl)piperazin-1-yl)methyl)-[1,1′-biphenyl]-4-yl)-1,1,1,3,3,3-hexafluoropropan-2-ol] | 0.1 fold change over DMSO | 0.05 fold change over DMSO | 0.05 fold change over DMSO | 1 fold change over DMSO
12 | OC(c1ccc(-c2ccc(CN3CCN(CCc4ccncc4)CC3)cc2)cc1)(C(F)(F)F)C(F)(F)F [Compound 41, 1,1,1,3,3,3-Hexafluoro-2-(4′-((4-(2-(pyridin-4-yl)ethyl)piperazin-1-yl)methyl)-[1,1′-biphenyl]-4-yl)propan-2-ol] | 0.5 fold change over DMSO | 0.3 fold change over DMSO | 0.3 fold change over DMSO | 1 fold change over DMSO
13 | OC(c1ccc(-c2ccc(CN3CCN(Cc4nc5ccccc5s4)CC3)cc2)cc1)(C(F)(F)F)C(F)(F)F [Compound 42, 2-(4′-((4-(Benzo[d]thiazol-2-ylmethyl)piperazin-1-yl)methyl)-[1,1′-biphenyl]-4-yl)-1,1,1,3,3,3-hexafluoropropan-2-ol] | 0.4 fold change over DMSO | 0.2 fold change over DMSO | 0.1 fold change over DMSO | 1 fold change over DMSO
14 | Cc1cc(CN2CCN(Cc3ccc(-c4ccc(C(O)(C(F)(F)F)C(F)(F)F)cc4)cc3)CC2)ccn1 [Compound 43, 1,1,1,3,3,3-Hexafluoro-2-(4′-((4-((2-methylpyridin-4-yl)methyl)piperazin-1-yl)methyl)-[1,1′-biphenyl]-4-yl)propan-2-ol] | 0.6 fold change over DMSO | 0.1 fold change over DMSO | 0.6 fold change over DMSO | 1 fold change over DMSO
15 | OC(c1ccc(-c2ccc(CN3CCN(c4ccncc4)CC3)cc2)cc1)(C(F)(F)F)C(F)(F)F [Compound 44, 1,1,1,3,3,3-Hexafluoro-2-(4′-((4-(pyridin-4-yl)piperazin-1-yl)methyl)-[1,1′-biphenyl]-4-yl)propan-2-ol] | 0.5 fold change over DMSO | 0.4 fold change over DMSO | 0.3 fold change over DMSO | 1 fold change over DMSO
